# Patent US9164099B2, “Site-specific labeling of affinity tags in fusion proteins” (LIFE TECHNOLOGIES CORPORATION, priority 2002, dated 2015)
# Key:
# Type in all cases: binding
# [1] = test system: poly-histidine affinity tag containing fusion protein (urate oxidase); assay: Gel detection of His-tagged urate oxidase with and without nickel ions (FIG. 1); conditions: staining solution without nickel ions compared with nickel ions
# Experimental: FIG. 1B is a graph showing data from the same experiment performed without nickel ions.
# Escherichia coli BL21 DE3 cells were transformed with plasmids containing either the human ATP synthase a subunit, the d subunit (including the leader sequence) or urate oxidase. Both proteins were constructed to have a poly-histidine affinity tag comprising six histidine residues, at the N-terminus and could be induced by isopropyl-beta-D-thiogalactoside (IPTG) addition to the medium. Pre-cultures (10 ml) were grown overnight in bacterial cell culture medium (LB medium) at 37° C. with constant shaking. The next day 100 μl was transferred to 50 ml of fresh LB medium containing 0.1 mg/ml ampicillin and grown until they reached an optical density at 595 nm (OD595) of 0.8. At this point 5 ml of culture was removed and immediately frozen on dry ice. To the rest of the culture 0.8 mM IPTG was added to induce the over-expression of the subunits. Samples (5 ml each) were taken after 10 min, 30 min, 1 h, 1.5 h, 2 h, 2.5 h, and 3 h and again frozen on dry ice. […]
# The resulting green-fluorescent signal produced by compound 2 was visualized using the 473 nm excitation line of the SHG laser on the Fuji FLA-3000G Fluorescence Image Analyzer (Fuji Photo, Tokyo, Japan) with the 520 nm long pass filter or the 580 nm band pass filter, respectively. […]
# [2] = test system: oligohistidine-tagged fusion proteins (the a subunit of Escherichia coli ATPase and porin); assay: Detection of poly-histidine affinity tag fusion proteins on a microarray; conditions: 10 μM compound, 50 mM PIPES pH 6.5
# Experimental: Purified oligohistidine-tagged fusion proteins (the a subunit of Escherichia coli ATPase and porin), as well as control proteins (bovine serum albumin and ovalbumin) are arrayed from a source plate (384 well plate) concentration of 0.468 μg/ml-0.240 mg/ml in water, onto HydroGel coated slides (Perkin Elmer), using the BioChip Arrayer™ (Perkin Elmer). The BioChip Arrayer™ utilizes a PiezoTip™ Dispenser consisting of 4 glass capillaries. Proteins are dispensed from the PiezoTip™ by droplets […] in volume to create array spots ˜200 microns in diameter with a 500 micron horizontal and vertical pitch (pitch=center to center spacing of spots). Proteins are arrayed in duplicate in four rows, with 10 dilution points. The resulting concentration range of the array is 166.5 pg/spot-0.325 pg/spot. For detection of oligohistine-tagged proteins, slides are incubated for 45 minutes on a rotator in 50% ethanol/7% acetic acid and then fixed overnight in fresh fixative solution to ensure complete elimination of SDS. Microarrays are next washed 3 times for 20 minutes each in deionized water. The microarrays are then incubated in a staining solution containing 10 μM Compound 2 or Compound 15; 50 mM PIPES at pH 6.5 for 45-90 minutes. Afterwards, the microarrays are washed 2 to 4 times for 20 minutes each in deionized water. […]
# [3] = molecular target: T1, poly-histidine affinity tag containing fusion protein (Oligomycin sensitivity conferring protein; OSCP) (Homo sapiens, UniProt P48047); assay: Gel detection of His-tagged OSCP followed by SYPRO Ruby total protein stain (FIG. 2, 3); conditions: staining solution containing nickel ions; compared with SYPRO Ruby total protein stain
# T1 construct: poly-histidine; made in house
# T1 sequence (P48047 24-213): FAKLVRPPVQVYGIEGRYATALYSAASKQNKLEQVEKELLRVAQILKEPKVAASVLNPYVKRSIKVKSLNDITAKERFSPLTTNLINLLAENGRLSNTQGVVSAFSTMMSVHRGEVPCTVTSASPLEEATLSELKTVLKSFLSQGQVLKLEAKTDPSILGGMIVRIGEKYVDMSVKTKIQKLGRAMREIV
# From the text: (§1) FIG. 2: FIG. 2A is a graph showing the detection of a poly-histidine affinity tag containing fusion protein (Oligomycin sensitivity conferring protein; OSCP) labeled with Compound 2 in a staining solution containing nickel ions followed by the detection of (shown in FIG. 2B) total protein using the total protein stain SYPRO® Ruby.
# as §1, with “3:” for “2:”, “3A” for “2A”, “15” for “2”, “3B)” for “2B)”
# Following separation of the proteins on a SDS-polyacrylamide gel, the gels were fixed for 20 minutes in 100 ml of 50% ethanol/7% acetic acid and then fixed overnight in 100 ml of fresh fixative solution to ensure complete elimination of SDS. Gels were next washed 3 times for 20 minutes each in deionized water. The gels were then incubated in a staining solution containing 10 μM compound 1 or 2 μM compound 2; 100 μM NiCl2; 50 mM PIPES at pH 6.5 for 45-90 minutes in a total volume of 25 ml. Afterwards, the gels were washed 2 to 4 times for 20 minutes each in deionized water. In order to ensure that the optimal signal was documented, gels were imaged after the second and fourth wash. […]
substance,measurement,setting,value
"4,4-difluoro-4-bora-3a,4a-diaza-s-indacene-3,5-bis((6-(propionyl)amino-2-bis(carboxymethyl)amino)hexanoic acid), hexatriethylammonium salt [Compound 2]",sensitivity for the poly-histidine affinity tag,[1],increased sensitivity
same,signal on control proteins (bovine serum albumin and ovalbumin),[2],little or no signal
same,selectivity for the poly-histidine affinity tag,[3],selective
